7 molecules from patent publication US8410302B2, “Methoxyimino compounds and fungicide composition comprising same” (Kyung Nong Corporation, priority 2007, dated 2013) can be followed below.

Where two headings read alike, the source gives them in different places.

One test deals with Phytophthora infestans. Description: whole plant or invertebrate. It counts as in vivo. Particulars: for pest or weed control at 2 ppm / pest or weed control at 10 ppm / pest or weed control at 50 ppm / pest or weed control at 100 ppm: Phytophthora infestans, in Solanum lycopersicum, read-out: TLB control value (C.V.).
A further test deals with Puccinia recondita. Description: Fungicidal activity against wheat leaf rust (WLR) disease, control value. It counts as in vivo. The conditions noted are these: for pest or weed control at 2 ppm / pest or weed control at 10 ppm / pest or weed control at 50 ppm / pest or weed control at 100 ppm: read-out: WLR control value (C.V.).
Another test has as its system Erysiphae graminis. Description: Fungicidal activity against barley powdery mildew (BPM) disease, control value. It counts as in vivo. The conditions noted are these: for pest or weed control at 2 ppm / pest or weed control at 10 ppm / pest or weed control at 50 ppm / pest or weed control at 100 ppm: 168 h, read-out: BPM control value (C.V.).
For a further test, the system named is Rhizoctonia solani AG-1. Description: Fungicidal activity against rice sheath blight (RSB) disease, control value. Particulars: for pest or weed control at 2 ppm / pest or weed control at 10 ppm / pest or weed control at 50 ppm / pest or weed control at 100 ppm: Rhizoctonia solani, AG1, in Oryza sativa, read-out: RSB control value (C.V.).
Test [1] deals with Pyricularia oryzae Carvara KA301. Description: whole plant or invertebrate. Type of test: in vivo. Particulars: for pest or weed control at 2 ppm / pest or weed control at 10 ppm / pest or weed control at 50 ppm / pest or weed control at 100 ppm: Pyricularia oryzae, read-out: RCB control value (C.V.); for RCB control value (C.V.): rice blast.
A further test has as its system Botrytis cinerae. Description: Fungicidal activity against cucumber gray mold rot (CGM) disease, control value. Type of test: in vivo.
The mark [2] stands for this setting: Botrytis, 100 ppm, read-out: CGM control value (C.V.).
Setting [3] is: Hordeum vulgare, barley powdery mildew.
The mark [4] stands for this setting: Hordeum vulgare, 50 ppm, barley powdery mildew.
The mark [5] stands for this setting: Hordeum vulgare, 100 ppm, barley powdery mildew.
The mark [6] stands for this setting: Botrytis, 100 ppm, cucumber gray mold rot, read-out: CGM control value (C.V.).

`CNC(=O)/C(=N/OC)c1ccccc1COc1ccc(C=C(Br)Br)cc1Br` [Example 78, (E)-2-(2-((2-bromo-4-(2,2-dibromovinyl)phenoxy)methyl)phenyl)-2-methoxyimino-N-methylacetamide]: the pest or weed control at 2 ppm in the test on Phytophthora infestans was 70%; in the test with Puccinia recondita (Puccinia recondita, 2 ppm), 95%; in the test with Erysiphae graminis it was 90%; with Rhizoctonia solani AG-1 it was 65%; in test [1] it was 40%. Also, the pest or weed control at 10 ppm in the test with Phytophthora infestans is 90%; with Puccinia recondita (Puccinia recondita, 10 ppm), 98%; in the test on Erysiphae graminis it was 100%; in the test on Rhizoctonia solani AG-1 it was 98%; in test [1] it was 90%. Besides, the pest or weed control at 50 ppm is 98% in the test with Phytophthora infestans; 100% in the test with Puccinia recondita (Puccinia recondita, 50 ppm); 100% with Erysiphae graminis (50 ppm); 100% in the test on Rhizoctonia solani AG-1; 98% in test [1]. Further, the pest or weed control at 100 ppm worked out at 100% in the test with Phytophthora infestans; 100% in the test on Puccinia recondita (Puccinia recondita, 100 ppm); 100% in the test on Erysiphae graminis (100 ppm); 100% in the test on Rhizoctonia solani AG-1; 100% in test [1]; 40% in the test on Botrytis cinerae (setting [2]).

In the case of `CNC(=O)/C(=N/OC)c1ccccc1COc1cccc(C=C(Br)Br)c1Cl` [Example 68, (E)-2-(2-((3-(2,2-dibromovinyl)-2-chlorophenoxy)methyl)phenyl)-2-methoxyimino-N-methylacetamide], the pest or weed control at 2 ppm in the test on Phytophthora infestans worked out at 100%; with Puccinia recondita (Puccinia recondita, 2 ppm), 100%; in the test with Erysiphae graminis, 100%; in the test on Rhizoctonia solani AG-1 it was 100%; in test [1] it was 100%. Moreover, the pest or weed control at 10 ppm was 100% in the test with Phytophthora infestans; 100% in the test with Puccinia recondita (Puccinia recondita, 10 ppm); 100% in the test with Erysiphae graminis; 100% in the test with Rhizoctonia solani AG-1; 100% in test [1]. Moreover, the pest or weed control at 50 ppm in the test with Phytophthora infestans was 100%; in the test on Puccinia recondita (Puccinia recondita, 50 ppm) it was 100%; in the test with Erysiphae graminis (50 ppm), 100%; with Rhizoctonia solani AG-1 it was 100%; in test [1], 100%; with Botrytis cinerae (Botrytis, 50 ppm, read-out: CGM control value (C.V.)), 20%. Also, the pest or weed control at 100 ppm is 100% in the test on Phytophthora infestans; 100% in the test with Puccinia recondita (Puccinia recondita, 100 ppm); 100% in the test with Erysiphae graminis (100 ppm); 100% in the test with Rhizoctonia solani AG-1; 100% in test [1]; 70% with Botrytis cinerae (setting [2]).

As to `CO/N=C(/C(=O)OC)c1ccccc1COc1ccc(C=C(Cl)Br)cc1` [Example 17, methyl-(2E)-2-(2-((4-(2-bromo-2-chlorovinyl)phenoxy)methyl)phenyl)-2-methoxyiminoacetate], the pest or weed control at 10 ppm in the test with Phytophthora infestans is 10%; in the test with Puccinia recondita (10 ppm, wheat leaf rust) it was 100%; in the test with Erysiphae graminis (setting [3]), 90%; in test [1], 100%. In addition, the pest or weed control at 50 ppm in the test with Phytophthora infestans was found to be 90%; with Puccinia recondita (50 ppm, wheat leaf rust), 100%; with Erysiphae graminis (setting [4]), 93%; in test [1] it was 100%. Also, the pest or weed control at 100 ppm in the test on Phytophthora infestans was found to be 100%; in the test on Puccinia recondita (100 ppm, wheat leaf rust), 100%; with Erysiphae graminis (setting [5]), 95%; in the test with Rhizoctonia solani AG-1, 90%; in test [1], 100%; with Botrytis cinerae (setting [6]), 50%. The pest or weed control at 2 ppm in the test on Puccinia recondita (2 ppm, wheat leaf rust) came out at 100%; in the test on Erysiphae graminis (setting [3]), 35%; in test [1], 70%.

For the molecule `CNC(=O)/C(=N/OC)c1ccccc1CON=C(C)c1cccc(C=C(F)F)c1` [Example 28, (E)-2-[[[[[2-[3-(2,2-difluorovinyl)phenyl](1-methyl)methylidene]amino]oxy]methyl]phenyl]-2-methoxyimino-N-methylacetamide], the “TLB control value (C.V.)” value in the test on Phytophthora infestans (100 ppm, tomato late blight) is recorded as 60%. Further, the “WLR control value (C.V.)” value in the test on Puccinia recondita (2 ppm, wheat leaf rust) turned out to be 40%; in the test on Puccinia recondita (10 ppm, wheat leaf rust), 90%; in the test on Puccinia recondita (50 ppm, wheat leaf rust), 100%; in the test on Puccinia recondita (100 ppm, wheat leaf rust), 100%. Further, the “BPM control value (C.V.)” value worked out at 60% in the test with Erysiphae graminis (50 ppm, barley powdery mildew) and 90% in the test with Erysiphae graminis (100 ppm, barley powdery mildew). Besides, the “RSB control value (C.V.)” value with Rhizoctonia solani AG-1 (100 ppm, rice sheath blight) is recorded as 35%. In addition, the “RCB control value (C.V.)” value in test [1] (50 ppm) was determined as 70%; in test [1] (100 ppm), 95%. For the same molecule, the “CGM control value (C.V.)” value with Botrytis cinerae (100 ppm, cucumber gray mold rot) amounted to 50%.

As for `CNC(=O)/C(=N/OC)c1ccccc1COc1ccc(C=C(Cl)Cl)cc1Cl` [Example 40, (E)-2-(2-((2-chloro-4-(2,2-dichlorovinyl)phenoxy)methyl)phenyl)-2-methoxyimino-N-methylacetamide], the pest or weed control at 100 ppm amounted to 30% in the test on Phytophthora infestans; 100% in the test with Puccinia recondita (100 ppm, wheat leaf rust); 100% in the test on Erysiphae graminis (setting [5]); 100% in the test with Rhizoctonia solani AG-1; 100% in test [1]; 10% with Botrytis cinerae (setting [6]). The pest or weed control at 2 ppm in the test with Puccinia recondita (2 ppm, wheat leaf rust) worked out at 100%; with Erysiphae graminis (setting [3]), 100%; in the test on Rhizoctonia solani AG-1, 100%; in test [1], 100%. Further, the pest or weed control at 10 ppm is 100% with Puccinia recondita (10 ppm, wheat leaf rust); 100% in the test on Erysiphae graminis (setting [3]); 100% in the test on Rhizoctonia solani AG-1; 100% in test [1]. Also, the pest or weed control at 50 ppm was determined as 100% in the test with Puccinia recondita (50 ppm, wheat leaf rust); 100% in the test with Erysiphae graminis (setting [4]); 100% with Rhizoctonia solani AG-1; 100% in test [1].

In the case of `CNC(=O)/C(=N/OC)c1ccccc1COc1ccc(C)cc1C=C(Br)Br` [Example 70, (E)-2-(2-((2-(2,2-dibromovinyl)-4-methylphenoxy)methyl)phenyl)-2-methoxyimino-N-methylacetamide], the pest or weed control at 10 ppm in the test with Phytophthora infestans was 35%; in the test on Puccinia recondita (Puccinia recondita, 10 ppm), 100%; in the test with Erysiphae graminis, 100%; with Rhizoctonia solani AG-1 it was 100%; in test [1], 100%. Besides, the pest or weed control at 50 ppm in the test with Phytophthora infestans was determined as 90%; in the test with Puccinia recondita (Puccinia recondita, 50 ppm), 100%; in the test on Erysiphae graminis (50 ppm) it was 100%; in the test with Rhizoctonia solani AG-1 it was 100%; in test [1] it was 100%. Further, the pest or weed control at 100 ppm with Phytophthora infestans amounted to 100%; in the test with Puccinia recondita (Puccinia recondita, 100 ppm), 100%; in the test on Erysiphae graminis (100 ppm), 100%; in the test with Rhizoctonia solani AG-1, 100%; in test [1], 100%; with Botrytis cinerae (setting [2]) it was 50%. Also, the pest or weed control at 2 ppm in the test with Puccinia recondita (Puccinia recondita, 2 ppm) came out at 100%; in the test on Erysiphae graminis it was 100%; in the test on Rhizoctonia solani AG-1, 100%; in test [1], 100%.

With `CO/N=C(/C(=O)OC)c1ccccc1COc1c(OC)ccc(C=C(Br)Br)c1Br` [Example 75, methyl-(E)-2-(2-((2-bromo-3-(2,2-dibromovinyl)-6-methoxyphenoxy)methyl)phenyl)-2-methoxyiminoacetate], the pest or weed control at 2 ppm in the test with Phytophthora infestans is 70%; in the test on Puccinia recondita (Puccinia recondita, 2 ppm), 95%; in the test with Erysiphae graminis it was 92%; in the test on Rhizoctonia solani AG-1, 65%; in test [1] it was 30%. The pest or weed control at 10 ppm in the test with Phytophthora infestans came to 90%; with Puccinia recondita (Puccinia recondita, 10 ppm) it was 100%; in the test on Erysiphae graminis it was 98%; in the test with Rhizoctonia solani AG-1 it was 98%; in test [1], 90%. Also, the pest or weed control at 50 ppm is 98% with Phytophthora infestans; 100% in the test with Puccinia recondita (Puccinia recondita, 50 ppm); 100% in the test with Erysiphae graminis (50 ppm); 100% in the test with Rhizoctonia solani AG-1; 100% in test [1]. In addition, the pest or weed control at 100 ppm in the test with Phytophthora infestans was 100%; with Puccinia recondita (Puccinia recondita, 100 ppm), 100%; with Erysiphae graminis (100 ppm) it was 100%; in the test with Rhizoctonia solani AG-1, 100%; in test [1], 100%; in the test on Botrytis cinerae (setting [2]), 40%.
